Where two headings read alike, the source gives them in different places.
Tests used:
[1] = test system: whole blood
Description: (§1) Experiments were done in which whole blood or red blood cells were washed and resuspended in a balanced salt solution, and then incubated at 37° with 200 ppb [Au(CN)2 ]^-. After 1 hour of incubation, cells were washed with balanced salt, centrifuged, then resuspended in water to lyse the cells. The resulting suspension was centrifuged at 20,000 rpm to separate the membrane and lysate (soluble protein) fractions. Both membrane and lysate fractions were analyzed for total gold by flow injection analysis using an inductively coupled plasma-mass spectrometer (ICP-MS).

[2] = test system: red blood cells
Description: as §1

[3] = test system: HIV reverse transcriptase; conditions: in vitro; cited from earlier work
[4] = test system: HIV; conditions: CEM cells; concentrations in the 6ppm range; cited from earlier work
[5] = parameters: species or system patients; conditions: human, in vivo
Description: A powerful means to attack the AIDS virus (HIV) would be to find a specific inhibitor of the viral reverse transcriptase. If this enzyme cannot function, viral replication cannot take place. The significant aspect of the viral life cycle which must be considered is that the viral replication takes place intracellularly. Thus, agents which may work in a test tube to inhibit the enzyme activity will have no effect on the virus itself unless the agent is capable of entering cells and developing an effective intracellular concentration.

[6] = test system: cells; conditions: cited from earlier work
[7] = test system: AIDS; conditions: cited from earlier work

sodium gold(I) thiomalate [Myochrysine]
gold remaining in the incubation medium [1]: ~90%
total gold found in the cell lysate [1]: about 5%
total gold in Cell lysate [1]: 4%
total gold in Membranes [1]: 6%
total gold in Supernatant [1]: 90%
total gold in Cell lysate [2]: 6%
total gold in Membranes [2]: 10%
total gold in Supernatant [2]: 84%

bis(thioglucose)gold(I)
inhibition of HIV reverse transcriptase [3]: does inhibit HIV reverse transcriptase
inhibition of the infectivity of HIV [4]: inhibit the infectivity of HIV

gold(I) thioglucose [Solganol]
levels of gold inside cells (in words) [5]: well below the levels required to inhibit the enzyme in vitro
levels of gold inside cells relative to amount found in blood [5]: less than 5%
inhibition of HIV reverse transcriptase [3]: inhibit HIV reverse transcriptase
ability to enter cells [6]: inherently unable to enter cells

Cc1cn([C@H]2C[C@H](N=[N+]=[N-])[C@@H](CO)O2)c(=O)[nH]c1=O [AZT, azidothymidine]
side effects ([7]; AIDS): significant side effects

O=c1[nH]cnc2c1ncn2[C@H]1CC[C@@H](CO)O1 [DDI, dideoxyinosine]
side effects ([7]; in vivo): significant side effects

Source: patent publication US5603963A, “Method for the treatment of retroviral diseases such as acquired immune deficiency syndrome utilizing (pseudo)halogen complexes of gold(1)” (priority 1994, dated 1997)
